Measured values from ChEMBL document CHEMBL5131391, “One-pot three-component synthesis of novel pyrazolo[3,4-b]pyridines as potent antileukemic agents” (Eur J Med Chem, 2022).

Key:
Type in all cases: functional
RXF 393 [1] = test: Antiproliferative activity against human RXF 393 cells assessed as growth inhibition at 10 uM measured after 48 hrs by NCI protocol based SRB assay relative to control; details: read-out: GI
HOP-62 = test: Antiproliferative activity against human HOP-62 cells assessed as growth inhibition at 10 uM measured after 48 hrs by NCI protocol based SRB assay relative to control; details: read-out: GI
HT-29 = test: Antiproliferative activity against human HT-29 cells assessed as growth inhibition at 10 uM measured after 48 hrs by NCI protocol based SRB assay relative to control; details: read-out: GI
M14 [2] = test: Antiproliferative activity against human M14 cells assessed as growth inhibition at 10 uM measured after 48 hrs by NCI protocol based SRB assay relative to control; details: read-out: GI
BT-549 = test: Cytostatic activity in human BT-549 cells assessed as tumor growth inhibition measured after 48 hrs by NCI protocol based SRB assay
HCT-116 = test: Antiproliferative activity against human HCT-116 cells assessed as growth inhibition at 10 uM measured after 48 hrs by NCI protocol based SRB assay relative to control; details: read-out: GI
CCRF-CEM [3] = test: Antiproliferative activity against human CEM cells assessed as reduction in cell viability incubated for 72 hrs by resazurin dye based assay
MDA-MB-435 = test: Antiproliferative activity against human MDA-MB-435 cells assessed as growth inhibition at 10 uM measured after 48 hrs by NCI protocol based SRB assay relative to control; details: read-out: GI
EKVX = test: Antiproliferative activity against human EKVX cells assessed as growth inhibition at 10 uM measured after 48 hrs by NCI protocol based SRB assay relative to control; details: read-out: GI
M14 [4] = test: Antiproliferative activity against human M14 cells assessed as growth inhibition measured after 48 hrs by NCI protocol based SRB assay
CCRF-CEM [5] = test: Cytostatic activity in human CCRF-CEM cells assessed as tumor growth inhibition measured after 48 hrs by NCI protocol based SRB assay
NCI-H460 = test: Antiproliferative activity against human NCI-H460 cells assessed as growth inhibition at 10 uM measured after 48 hrs by NCI protocol based SRB assay relative to control; details: read-out: GI
COLO 205 = test: Antiproliferative activity against human COLO 205 cells assessed as growth inhibition at 10 uM measured after 48 hrs by NCI protocol based SRB assay relative to control; details: read-out: GI
MDA-MB-231 = test: Antiproliferative activity against human MDA-MB-231 cells assessed as growth inhibition at 10 uM measured after 48 hrs by NCI protocol based SRB assay relative to control; details: read-out: GI
HOP-92 = test: Antiproliferative activity against human HOP-92 cells assessed as growth inhibition at 10 uM measured after 48 hrs by NCI protocol based SRB assay relative to control; details: read-out: GI
OVCAR-5 [6] = test: Antiproliferative activity against human OVCAR-5 cells assessed as growth inhibition at 10 uM measured after 48 hrs by NCI protocol based SRB assay relative to control; details: read-out: GI
Malme-3M [7] = test: Antiproliferative activity against human Malme-3M cells assessed as growth inhibition at 10 uM measured after 48 hrs by NCI protocol based SRB assay relative to control; details: read-out: GI
KM12 = test: Antiproliferative activity against human KM12 cells assessed as growth inhibition at 10 uM measured after 48 hrs by NCI protocol based SRB assay relative to control; details: read-out: GI
M14 [8] = test: Cytostatic activity in human M14 cells assessed as tumor growth inhibition measured after 48 hrs by NCI protocol based SRB assay
Malme-3M [9] = test: Antiproliferative activity against human Malme-3M cells assessed as growth inhibition measured after 48 hrs by NCI protocol based SRB assay
CAKI-1 = test: Cytostatic activity in human CAKI-1 cells assessed as tumor growth inhibition measured after 48 hrs by NCI protocol based SRB assay
HCC 2998 = test: Antiproliferative activity against human HCC 2998 cells assessed as growth inhibition at 10 uM measured after 48 hrs by NCI protocol based SRB assay relative to control; details: read-out: GI
SK-MEL-28 = test: Antiproliferative activity against human SK-MEL-28 cells assessed as growth inhibition at 10 uM measured after 48 hrs by NCI protocol based SRB assay relative to control; details: read-out: GI
UACC-257 = test: Antiproliferative activity against human UACC-257 cells assessed as growth inhibition at 10 uM measured after 48 hrs by NCI protocol based SRB assay relative to control; details: read-out: GI
OVCAR-8 = test: Antiproliferative activity against human OVCAR-8 cells assessed as growth inhibition at 10 uM measured after 48 hrs by NCI protocol based SRB assay relative to control; details: read-out: GI
OVCAR-4 = test: Antiproliferative activity against human OVCAR-4 cells assessed as growth inhibition at 10 uM measured after 48 hrs by NCI protocol based SRB assay relative to control; details: read-out: GI
SW-620 = test: Antiproliferative activity against human SW-620 cells assessed as growth inhibition at 10 uM measured after 48 hrs by NCI protocol based SRB assay relative to control; details: read-out: GI
NCI-H522 = test: Antiproliferative activity against human NCI-H522 cells assessed as growth inhibition at 10 uM measured after 48 hrs by NCI protocol based SRB assay relative to control; details: read-out: GI
Hs-578T = test: Antiproliferative activity against human Hs-578T cells assessed as growth inhibition at 10 uM measured after 48 hrs by NCI protocol based SRB assay relative to control; details: read-out: GI
786-0 = test: Antiproliferative activity against human 786-0 cells assessed as growth inhibition at 10 uM measured after 48 hrs by NCI protocol based SRB assay relative to control; details: read-out: GI
OVCAR-5 [10] = test: Cytostatic activity in human OVCAR-5 cells assessed as tumor growth inhibition measured after 48 hrs by NCI protocol based SRB assay
SK-OV-3 = test: Antiproliferative activity against human SK-OV-3 cells assessed as growth inhibition at 10 uM measured after 48 hrs by NCI protocol based SRB assay relative to control; details: read-out: GI
IGROV-1 = test: Cytostatic activity in human IGROV-1 cells assessed as tumor growth inhibition measured after 48 hrs by NCI protocol based SRB assay
RXF 393 [11] = test: Cytostatic activity in human RXF 393 cells assessed as tumor growth inhibition measured after 48 hrs by NCI protocol based SRB assay
[12] = read-out: LC50 (the source's name)

SMILES	inhibition of growth at 10 µM (RXF 393 [1]) [%]	inhibition of growth at 10 µM (HOP-62) [%]	inhibition of growth at 10 µM (M14 [2]) [%]	inhibition of growth at 10 µM (HCT-116) [%]	IC50 (CCRF-CEM [3]) [µM]	inhibition of growth at 10 µM (MDA-MB-435) [%]	inhibition of growth at 10 µM (EKVX) [%]	inhibition of growth at 10 µM (NCI-H460) [%]	inhibition of growth at 10 µM (COLO 205) [%]	inhibition of growth at 10 µM (MDA-MB-231) [%]	inhibition of growth at 10 µM (HOP-92) [%]	inhibition of growth at 10 µM (Malme-3M [7]) [%]	inhibition of growth at 10 µM (KM12) [%]	inhibition of growth at 10 µM (SK-MEL-28) [%]	inhibition of growth at 10 µM (OVCAR-8) [%]	inhibition of growth at 10 µM (OVCAR-4) [%]	inhibition of growth at 10 µM (SW-620) [%]	inhibition of growth at 10 µM (NCI-H522) [%]	inhibition of growth at 10 µM (Hs-578T) [%]	inhibition of growth at 10 µM (786-0) [%]	further results
N#Cc1c(-c2ccccc2)nc2c(c(-c3ccccc3)nn2-c2ccccc2)c1-c1ccc(O)cc1	117	75	44	66	33.4	49	55	91	59	77	50	57	53	51	45	28	84	99	85	97	inhibition of growth at 10 µM (HT-29): 16%; TGI (BT-549): 4.45 µM; GI50 (M14 [4]): 2.27 µM; CC50 (M14 [4]; [12]): 23 µM; TGI (CCRF-CEM [5]): 13.4 µM; inhibition of growth at 10 µM (OVCAR-5 [6]): 19%; TGI (M14 [8]): 5.48 µM; GI50 (Malme-3M [9]): 1.62 µM; CC50 (Malme-3M [9]; [12]): 9.06 µM; TGI (CAKI-1): 6.7 µM; inhibition of growth at 10 µM (HCC 2998): 28%; inhibition of growth at 10 µM (UACC-257): 29%; TGI (OVCAR-5 [10]): 3.41 µM; inhibition of growth at 10 µM (SK-OV-3): 29%; TGI (IGROV-1): 3.62 µM; TGI (RXF 393 [11]): 2.35 µM
COc1cc(-c2c(C#N)c(-c3ccccc3)nc3c2c(-c2ccccc2)nn3-c2ccccc2)ccc1O	42	15	19	45	> 50	32	18	38	23	28	22	43	35	19	28	34	22	47	32	24	–
